Source: the supplement of paper PMC10307832

Columns and labels:
Assay in all cases: relative viability (nuclei count vs DMSO), 5 days (fraction); higher = more cells survive
Linsitinib + OSI-027 = compound: C[C@]1(O)C[C@@H](c2nc(-c3ccc4ccc(-c5ccccc5)nc4c3)c3c(N)nccn32)C1 [Linsitinib] + COc1cccc2cc(-c3nc([C@H]4CC[C@H](C(=O)O)CC4)n4ncnc(N)c34)[nH]c12 [OSI-027] (partner 0.5 µM)
Procedure, shortened: (§1)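 Nuclei were stained with Hoechst during a one-step fixation (final 0.05% Triton X-100, 1% formaldehyde, 1 ug/ml Hoechst) carried out 5 days after dosing, then counted on 4× images. The cells, lung cancer lines in 1536-well plates, had been dosed by pin tool the day after seeding with one drug alone or a fixed anchor-drug dose plus five library-drug doses (not always all listed) in √10 steps. Relative viability is the nuclei count in treated wells divided by that in vehicle wells, and each value is the median of duplicate plates.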

Linsitinib + Dasatinib = compound: C[C@]1(O)C[C@@H](c2nc(-c3ccc4ccc(-c5ccccc5)nc4c3)c3c(N)nccn32)C1 [Linsitinib] + Cc1nc(Nc2ncc(C(=O)Nc3c(C)cccc3Cl)s2)cc(N2CCN(CCO)CC2)n1 [Dasatinib] (partner 0.075 µM)
Procedure, shortened: as §1

Linsitinib + Decitabine = compound: C[C@]1(O)C[C@@H](c2nc(-c3ccc4ccc(-c5ccccc5)nc4c3)c3c(N)nccn32)C1 [Linsitinib] + Nc1ncn([C@H]2C[C@H](O)[C@@H](CO)O2)c(=O)n1 [Decitabine] (partner 2 µM)
Procedure, shortened: as §1

Ispinesib + Trametinib = compound: Cc1ccc(C(=O)N(CCCN)[C@@H](c2nc3cc(Cl)ccc3c(=O)n2Cc2ccccc2)C(C)C)cc1 [Ispinesib] + CC(=O)Nc1cccc(-n2c(=O)n(C3CC3)c(=O)c3c(Nc4ccc(I)cc4F)n(C)c(=O)c(C)c32)c1 [Trametinib] (partner 0.02 µM)
Procedure, shortened: as §1

Row | Cell Line | relative viability (Linsitinib + OSI-027; first compound 0.01 µM) | relative viability (Linsitinib + OSI-027; first compound 0.03162 µM) | relative viability (Linsitinib + OSI-027; first compound 0.1 µM) | relative viability (Linsitinib + OSI-027; first compound 0.3162 µM) | relative viability (Linsitinib + OSI-027; first compound 1 µM) | relative viability (Linsitinib + Dasatinib; first compound 0.01 µM) | relative viability (Linsitinib + Dasatinib; first compound 0.03162 µM) | relative viability (Linsitinib + Dasatinib; first compound 0.1 µM) | relative viability (Linsitinib + Dasatinib; first compound 0.3162 µM) | relative viability (Linsitinib + Dasatinib; first compound 1 µM) | relative viability (Linsitinib + Decitabine; first compound 0.03162 µM) | relative viability (Linsitinib + Decitabine; first compound 0.1 µM) | relative viability (Linsitinib + Decitabine; first compound 0.3162 µM) | relative viability (Linsitinib + Decitabine; first compound 1 µM) | relative viability (Ispinesib + Trametinib; first compound 0.001 µM) | relative viability (Ispinesib + Trametinib; first compound 0.003162 µM) | relative viability (Ispinesib + Trametinib; first compound 0.01 µM) | relative viability (Ispinesib + Trametinib; first compound 0.03162 µM) | relative viability (Ispinesib + Trametinib; first compound 0.1 µM) | relative viability (Linsitinib + Decitabine; first compound 0.01 µM)
1 | HCC-78 | 0.377 | 0.379 | 0.31 | 0.377 | 0.347 | 0.365 | 0.437 | 0.238 | 0.554 | 0.265 | 0.818 | 0.649 | 0.588 | 0.682 | 1.04 | 0.869 | 1.2 | 0.493 | 0.513 | 
2 | NCI-H358 | 0.781 | 0.928 | 0.68 | 0.421 | 0.246 | 0.162 | 0.167 | 0.159 | 0.148 | 0.142 | 0.354 | 0.256 | 0.208 | 0.222 | 0.126 | 0.131 | 0.128 | 0.115 | 0.106 | 0.242
3 | SK-LU-1 | 0.338 |  | 0.295 | 0.221 | 0.197 | 0.193 |  | 0.168 | 0.182 | 0.115 | 0.635 | 0.637 | 0.624 | 0.602 | 0.506 | 0.524 | 0.458 | 0.359 | 0.356 | 0.605
4 | H3255 | 0.654 | 0.682 | 0.725 | 0.467 | 0.576 | 0.347 | 0.369 | 0.347 | 0.334 | 0.344 | 0.627 | 0.559 | 0.518 | 0.686 | 0.621 | 0.711 | 0.622 | 0.448 | 0.328 | 
5 | LOU-NH91 | 0.714 | 0.704 | 0.7 | 0.712 | 0.527 | 0.561 | 0.612 | 0.545 | 0.645 | 0.456 | 0.806 | 0.803 | 0.715 | 0.782 | 0.772 | 0.774 | 0.814 | 0.725 | 0.309 | 0.813
6 | NCI-H1666 | 0.772 | 0.957 | 0.759 | 0.476 | 0.434 | 0.854 | 0.767 | 0.853 | 0.64 | 0.473 | 0.79 | 0.732 | 0.521 | 0.602 | 0.934 | 0.864 | 0.788 | 0.858 | 0.604 | 0.622
7 | SK-MES-1 | 0.541 | 0.417 | 0.603 | 0.458 | 0.332 | 0.297 | 0.351 | 0.257 | 0.323 | 0.289 | 0.369 | 0.387 | 0.418 | 0.423 | 0.586 | 0.533 | 0.583 | 0.21 | 0.195 | 0.39
8 | NCI-H2023 | 0.425 | 0.215 | 0.358 | 0.212 | 0.12 | 0.472 | 0.373 | 0.528 | 0.29 | 0.218 |  | 0.239 | 0.196 | 0.243 | 0.574 | 0.606 | 0.551 | 0.24 | 0.14 | 0.213
9 | COR-L 105 | 0.64 | 0.578 | 0.603 | 0.596 | 0.381 | 0.321 | 0.374 | 0.294 | 0.289 | 0.252 | 0.569 | 0.597 | 0.554 | 0.659 | 0.466 | 0.424 | 0.426 | 0.363 | 0.377 | 0.636
10 | NCI-H838 | 0.323 | 0.42 | 0.312 |  | 0.189 | 0.273 | 0.258 | 0.267 | 0.227 | 0.225 | 0.581 | 0.452 | 0.284 | 0.405 | 0.627 | 0.529 | 0.542 | 0.359 | 0.164 | 0.462
11 | SW 1573 | 0.772 | 0.524 | 0.502 | 0.393 | 0.282 | 0.454 | 0.454 | 0.453 | 0.348 | 0.252 | 0.589 | 0.447 | 0.472 | 0.348 | 0.614 | 0.547 | 0.516 | 0.158 | 0.144 | 0.648
